In PubChem BioAssay AID248 (DTP/NCI, 2004):
Several values for one entry are separate records, joined by “and”; a condition that tells them apart may be missing. Equal values may be shown once. Inconclusive results and toxic doses are left out. Rule as the data show it: active = T/C of 150% or more; inactive = T/C below 125%.

System: L1210 leukemia ip in BDF1 mice, survival T/C
Test: NCI In Vivo Anticancer Drug Screen. Data for tumor model L1210 Leukemia (intraperitoneal) in B6D2F1 (BDF1) mice
Settings: endpoint: mean survival time, higher = longer survival
Method in brief: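 Read-out is survival time, reported as the treated-group measurement over the vehicle-control measurement.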

[1] = dose: 12.5 mg/kg/injection, schedule: Q01DX009 (ip), vehicle: saline with Tween-80
[2] = dose: 25.0 mg/kg/injection, schedule: Q04DX003 (ip), vehicle: Klucel (hydroxypropylcellulose) (HPC)
[3] = dose: 50.0 mg/kg/injection, schedule: Q04DX003 (ip), vehicle: Klucel (hydroxypropylcellulose) (HPC)
[4] = dose: 100.0 mg/kg/injection, schedule: Q04DX003 (ip), vehicle: saline
[5] = dose: 200.0 mg/kg/injection, schedule: Q04DX003 (ip), vehicle: saline
[6] = dose: 400.0 mg/kg/injection, schedule: Q04DX003 (ip), vehicle: saline
[7] = dose: 50.0 mg/kg/injection, schedule: Q01DX009 (ip), vehicle: saline with Tween-80
[8] = dose: 100.0 mg/kg/injection, schedule: Q01DX009 (ip), vehicle: saline with Tween-80
[9] = dose: 100.0 mg/kg/injection, schedule: Q01DX001 (ip), vehicle: carboxymethylcellulose (CMC)
[10] = dose: 200.0 mg/kg/injection, schedule: Q01DX001 (ip), vehicle: carboxymethylcellulose (CMC)
[11] = dose: 400.0 mg/kg/injection, schedule: Q01DX001 (ip), vehicle: carboxymethylcellulose (CMC)
[12] = dose: 100.0 mg/kg/injection, schedule: Q04DX003 (ip), vehicle: Klucel (hydroxypropylcellulose) (HPC)
[13] = dose: 200.0 mg/kg/injection, schedule: Q04DX003 (ip), vehicle: Klucel (hydroxypropylcellulose) (HPC)
[14] = dose: 400.0 mg/kg/injection, schedule: Q04DX003 (ip), vehicle: Klucel (hydroxypropylcellulose) (HPC)
[15] = dose: 100.0 mg/kg/injection, schedule: Q01DX009 (ip), vehicle: Klucel (hydroxypropylcellulose) (HPC)
[16] = dose: 200.0 mg/kg/injection, schedule: Q01DX009 (ip), vehicle: Klucel (hydroxypropylcellulose) (HPC)
[17] = dose: 400.0 mg/kg/injection, schedule: Q01DX009 (ip), vehicle: Klucel (hydroxypropylcellulose) (HPC)

Measured: T/C

CC1(C)OCC(C2OC(N)C3OC(C)(C)OC32)O1 (stereo not drawn)
inactive: dose: 100.0 mg/kg/injection, schedule: Q04DX002 (ip), vehicle: saline 97 % of control | dose: 200.0 mg/kg/injection, schedule: Q04DX002 (ip), vehicle: saline 113 % of control | dose: 400.0 mg/kg/injection, schedule: Q04DX002 (ip), vehicle: saline 103 % of control

[Cl][Hg][c]1ccc2ccccc2c1
inactive: dose: 6.25 mg/kg/injection, schedule: Q01DX005 (ip), vehicle: saline with Tween-80 104 % of control | dose: 12.5 mg/kg/injection, schedule: Q01DX005 (ip), vehicle: saline with Tween-80 97 % of control | [1] 92 % of control | dose: 25.0 mg/kg/injection, schedule: Q01DX005 (ip), vehicle: saline with Tween-80 104 % of control

CC1(C)N=C(N)N=C(N)N1c1ccc(CCc2ccccc2)c(Cl)c1
inactive: dose: 3.13 mg/kg/injection, schedule: Q01DX009 (ip), vehicle: Klucel (hydroxypropylcellulose) (HPC) 100 % of control | dose: 6.25 mg/kg/injection, schedule: Q01DX009 (ip), vehicle: Klucel (hydroxypropylcellulose) (HPC) 104 % of control | dose: 12.5 mg/kg/injection, schedule: Q01DX009 (ip), vehicle: Klucel (hydroxypropylcellulose) (HPC) 104 % of control | dose: 12.5 mg/kg/injection, schedule: Q04DX003 (ip), vehicle: Klucel (hydroxypropylcellulose) (HPC) 93 % of control | dose: 25.0 mg/kg/injection, schedule: Q01DX009 (ip), vehicle: Klucel (hydroxypropylcellulose) (HPC) 107 % of control | [2] 93 % of control | [3] 94 % of control

Cc1cn(C2CC(O)C(CO)O2)c(=O)[nH]c1=O (stereo not drawn)
inactive: dose: 50.0 mg/kg/injection, schedule: Q03HX024 (ip), vehicle: saline 100 % of control | dose: 100.0 mg/kg/injection, schedule: Q03HX024 (ip), vehicle: saline 100 % of control | dose: 200.0 mg/kg/injection, schedule: Q03HX024 (ip), vehicle: saline 98 % of control | dose: 400.0 mg/kg/injection, schedule: Q03HX024 (ip), vehicle: saline 100 % of control

O=C(CBr)OCCCS(=O)(=O)O
inactive: dose: 100.0 mg/kg/injection, schedule: Q01DX009 (ip), vehicle: saline 96 % of control | [4] 105 % of control | dose: 200.0 mg/kg/injection, schedule: Q01DX009 (ip), vehicle: saline 113 % of control | [5] 104 % of control | dose: 400.0 mg/kg/injection, schedule: Q01DX009 (ip), vehicle: saline 102 % of control | [6] 93 % of control

CCOC(=O)c1c(-c2ccc([N+](=O)[O-])cc2)c(/C=N\O)n(-c2ccccc2)c1C
inactive: dose: 100.0 mg/kg/injection, schedule: Q04DX002 (ip), vehicle: Klucel (hydroxypropylcellulose) (HPC) 87 % of control | dose: 200.0 mg/kg/injection, schedule: Q04DX002 (ip), vehicle: Klucel (hydroxypropylcellulose) (HPC) 94 % of control

C/C(=C\C(=O)O)CBr
inactive: [7] 93 % of control | [8] 86 % of control

CNC(=O)Nc1cccc2ccccc12
inactive: [9] 95 % of control | dose: 100.0 mg/kg/injection, schedule: Q01DX009 (ip), vehicle: carboxymethylcellulose (CMC) 93 % of control and 89 % of control | dose: 100.0 mg/kg/injection, schedule: Q04DX002 (ip), vehicle: carboxymethylcellulose (CMC) 106 % of control | dose: 100.0 mg/kg/injection, schedule: Q04DX003 (ip), vehicle: carboxymethylcellulose (CMC) 97 % of control | [10] 101 % of control | dose: 200.0 mg/kg/injection, schedule: Q01DX009 (ip), vehicle: carboxymethylcellulose (CMC) 98 % of control and 101 % of control | dose: 200.0 mg/kg/injection, schedule: Q04DX002 (ip), vehicle: carboxymethylcellulose (CMC) 100 % of control | dose: 200.0 mg/kg/injection, schedule: Q04DX003 (ip), vehicle: carboxymethylcellulose (CMC) 96 % of control | [11] 97 % of control | dose: 400.0 mg/kg/injection, schedule: Q01DX009 (ip), vehicle: carboxymethylcellulose (CMC) 93 % of control and 86 % of control | dose: 400.0 mg/kg/injection, schedule: Q04DX002 (ip), vehicle: carboxymethylcellulose (CMC) 99 % of control | dose: 400.0 mg/kg/injection, schedule: Q04DX003 (ip), vehicle: carboxymethylcellulose (CMC) 97 % of control

O=C(OCCBr)Oc1cccc2ccccc12
inactive: [9] 98 % of control | [10] 93 % of control | [11] 95 % of control

Cc1ccc(S(=O)(=O)Nc2ccccc2SSc2ccccc2NS(=O)(=O)c2ccc(C)cc2)cc1
inactive: [8] 97 % of control | dose: 100.0 mg/kg/injection, schedule: Q04DX003 (ip), vehicle: saline with Tween-80 101 % of control | dose: 200.0 mg/kg/injection, schedule: Q01DX009 (ip), vehicle: saline with Tween-80 97 % of control | dose: 200.0 mg/kg/injection, schedule: Q04DX003 (ip), vehicle: saline with Tween-80 97 % of control | dose: 400.0 mg/kg/injection, schedule: Q01DX009 (ip), vehicle: saline with Tween-80 90 % of control | dose: 400.0 mg/kg/injection, schedule: Q04DX003 (ip), vehicle: saline with Tween-80 95 % of control

Cc1ccccc1C(Cc1ccc(N2C(N)=NC(N)=NC2(C)C)cc1)C(=O)Nc1ccc(S(=O)(=O)F)cc1 (stereo not drawn)
inactive: [12] 98 % of control | [13] 96 % of control | [14] 88 % of control

NC(=S)N/N=C/c1cccc(CC(O)(C(F)(F)F)C(F)(F)F)n1
inactive: [1] 97 % of control | dose: 25.0 mg/kg/injection, schedule: Q01DX009 (ip), vehicle: saline with Tween-80 95 % of control | [7] 93 % of control

COC(=O)c1cccc(O)c1
inactive: dose: 100.0 mg/kg/injection, schedule: Q01DX001 (ip), vehicle: saline with Tween-80 94 % of control | dose: 200.0 mg/kg/injection, schedule: Q01DX001 (ip), vehicle: saline with Tween-80 91 % of control | dose: 400.0 mg/kg/injection, schedule: Q01DX001 (ip), vehicle: saline with Tween-80 98 % of control

Cc1cccc(P(=O)(c2ccccc2)c2ccccc2)c1 (tested in a mixture with another compound)
inactive: dose: 100.0 mg/kg/injection, schedule: Q04DX002 (ip), vehicle: saline with Tween-80 104 % of control | dose: 200.0 mg/kg/injection, schedule: Q04DX002 (ip), vehicle: saline with Tween-80 96 % of control | dose: 400.0 mg/kg/injection, schedule: Q04DX002 (ip), vehicle: saline with Tween-80 88 % of control

O=C1c2ccccc2C(=O)N1CNc1ccccc1
inactive: [15] 103 % of control | [12] 104 % of control | [16] 98 % of control | [13] 102 % of control | [17] 93 % of control | [14] 94 % of control

O=[N+]([O-])c1cccc(N=Nc2ccc(O)cc2)c1
inactive: [15] 102 % of control | dose: 130.0 mg/kg/injection, schedule: Q01DX009 (ip), vehicle: Klucel (hydroxypropylcellulose) (HPC) 106 % of control

O=c1cc(CO)oc(C(Nc2ccccc2)c2ccccc2)c1O (stereo not drawn)
inactive: dose: 100.0 mg/kg/injection, schedule: Q01DX001 (ip), vehicle: saline 91 % of control | dose: 200.0 mg/kg/injection, schedule: Q01DX001 (ip), vehicle: saline 97 % of control | dose: 400.0 mg/kg/injection, schedule: Q01DX001 (ip), vehicle: saline 95 % of control

Nc1ncnc2c1ncn2C1OC(COS(N)(=O)=O)C(O)C1O (stereo not drawn)
inactive: dose: 0.5 mg/kg/injection, schedule: Q01DX001 (ip), vehicle: saline 113 % of control

CC(=O)NC1CC2c3ccccc3C1([N+](=O)[O-])c1ccccc12 (stereo not drawn)
inactive: [15] 107 % of control | [12] 107 % of control | [4] 107 % of control | [16] 101 % of control | [13] 105 % of control | [5] 105 % of control | [17] 97 % of control | [14] 97 % of control | [6] 97 % of control

O=C(O)c1cc(Cl)c(Cl)s1
inactive: [2] 101 % of control | [3] 100 % of control | [12] 103 % of control

CCOC(CNC(=O)c1ccc(S(=O)(=O)F)cc1)OCC
inactive: dose: 100.0 mg/kg/injection, schedule: Q04DX003 (ip), vehicle: alcohol 107 % of control | dose: 200.0 mg/kg/injection, schedule: Q04DX003 (ip), vehicle: alcohol 101 % of control | dose: 400.0 mg/kg/injection, schedule: Q04DX003 (ip), vehicle: alcohol 98 % of control
